This assay deals with Bifidobacterium animalis ssp. lactis DSM 32269. The assay is described as follows: Short-term batch-fermentation (colonic incubation, M-SHIME colon model) with fecal inocula of six human donors; qPCR on groEL gene. It counts as cell-based. As to conditions: 48 h colonic incubation; for levels of Bifidobacterium animalis ssp. lactis (DSM 32269 specific groEL gene copies) in the lumen environment, as compared to the respective control: average of six donors, co-supplemented with probiotic 1*10^9 CFU, vitamin B2 0.01667 g/L, vitamin C 0.333 g/L, vitamin D3 0.000025 g/L. As for the experimental part: A short-term batch-fermentation experiment was carried out by ProDigest, consisting of a colonic incubation of a representative dose of a selected vitamin with a representative bacterial inoculum under simulated conditions for the proximal large intestine. In the current experiment, the bacterial inocula were derived from fresh fecal samples of six different healthy adult donors. Incubations were performed as described previously (Van den Abbeele, P.; Taminiau, B.; Pinheiro, I.; Duysburgh, C.; Jacobs, H.; Pijls, L.; Marzorati, M. Arabinoxylo-Oligosaccharides and Inulin Impact Inter-Individual Variation on Microbial Metabolism and Composition, Which Immunomodulates Human Cells. J. Agric. Food Chem. 2018, 66, 1121-1130). At the start of the short-term colonic incubation, fresh fecal material from six healthy human donors was collected and upon preparation of an anaerobic fecal slurry, this slurry was inoculated at 10 vol % in a SHIME nutritional medium containing basal nutrients containing 3.5 g/L K2HPO4, 10.9 g/L KH2PO4, 2 g/L NaHCO3(Chem-lab NV, Zedelgem, Belgium), 2 g/L yeast extract, 2 g/L peptone (Oxoid, Aalst, Belgium), 1 g/L mucin (Carl Roth, Karlsruhe, Germany), 0.5 g/L L-cysteine and 2 mL/L Tween80 (Sigma-Aldrich, Bornem, Belgium). All test ingredients (i.e., probiotic strain, vitamin B2, C, or D3) were also added to the SHIME medium. Furthermore, M-SHIME® technology was incorporated in the current experiment by adding mucin-covered microcosms (modeling the mucus of the colon) to the incubations as described previously (Van den Abbeele, P., et al. (2013). Butyrate-producing Clostridium cluster XIVa species specifically colonize mucins in an in vitro gut model. The ISME Journal 7 (5), 949-961). Incubations were performed for 48 h, at 37° C., under shaking (90 rpm) and anaerobic conditions.
In this study, the Bifidobacterium animalis ssp. lactis BB-12 equivalent Bifidobacterium animalis ssp. lactis DSM 32269 (Biocare Copenhagen) was added to the colon model containing the donor samples, alone or in combination with vitamin B2, C, or D (see Table 1). After 48 h of incubation, the abundance of the added strain was analyzed using primers that are specific for Bifidobacterium animalis ssp. lactis BB-12/Bifidobacterium animalis ssp. lactis DSM 32269. Experiments were performed in single repetition.
The Bifidobacterium animalis ssp. lactis BB-12 equivalent strain Bifidobacterium animalis ssp. lactis DSM 32269 was added to the SHIME medium as an overnight grown culture at a concentration of 1*10^9 CFU. The probiotic strain was either supplemented alone or in combination with vitamin B2, vitamin C or vitamin D3 (DSM). Vitamin B2, C, and D3 was added at a concentration of 0.01667 g/L, 0.333 g/L and 0.000025 g/L, respectively, which translates into a 10 mg, 200 mg, and […] dose, respectively, given that the colon volume is about 600 ml.
qPCR was performed on groEL gene (NCBI reference CP003497) to monitor the level of the supplemented Bifidobacterium animalis ssp. lactis DSM 32269 strain within the gut microbiome, as described previously (Junick et al. (2012), Quantification of Human Fecal Bifidobacterium Species by Use of Quantitative Real-Time PCR Analysis Targeting the groEL Gene). Samples were analyzed from the lumen and mucus environment following 48 h of incubation.
Statistical analysis was performed to investigate the average effect of the test products. For this purpose, the average over the six donors was calculated for each endpoint. […]

The mark [1] stands for this setting: control = probiotic only, p<0.05.

The results in this text go back to patent publication US20260014118A1, “VITAMINS FOR USE IN IMPROVING GUT HEALTH” (DSM IP ASSETS B.V., priority 2022, published 2026).

As for `C=C1CC[C@H](O)C/C1=C/C=C1\CCC[C@]2(C)[C@@H]([C@H](C)CCCC(C)C)CC[C@@H]12` [vitamin D, cholecalciferol], under setting [1], the “levels of Bifidobacterium animalis ssp. lactis (DSM 32269 specific groEL gene copies) in the lumen environment, as compared to the respective control” value is “significantly increased”.
Regarding `Cc1cc2nc3c(=O)[nH]c(=O)nc-3n(C[C@H](O)[C@H](O)[C@H](O)CO)c2cc1C` [vitamin B2, riboflavin], under setting [1], the “levels of Bifidobacterium animalis ssp. lactis (DSM 32269 specific groEL gene copies) in the lumen environment, as compared to the respective control” value is “significantly increased”. Besides, the “levels of Bifidobacterium animalis ssp. lactis in the mucus environment, as compared to the respective control” value (mucus, vitamin B2 0.01667 g/L co-supplemented with probiotic, control = probiotic only, p<0.05) is “significantly increased”. Moreover, the “copies of the Bifidobacterium animalis ssp. lactis DSM 32269 specific groEL gene in the mucus environment, relative to control” value (mucus, vitamin B2 0.01667 g/L co-supplemented with probiotic, versus probiotic only) is given as “around 6 times”.
With `O=C1O[C@H]([C@@H](O)CO)C(O)=C1O` [vitamin C, L-ascorbic acid], the “levels of Bifidobacterium animalis ssp. lactis (DSM 32269 specific groEL gene copies) in the lumen environment, as compared to the respective control” value under setting [1] is on record as “significantly increased”.
